Source: patent publication US7341836B2, “Modified cyclic nucleotide gated ion channels” (The Regents of the University of Colorado, priority 2001, dated 2008)
“Also recorded” adds a separate entry of the source.

Legend:
[1] = tested on: PDE activity in GH4C1 cells; test: Effect of PDE inhibitors, forskolin and VIP on cAMP levels (Ca2+ influx through CNG channels); type: cell-based, rat; conditions: for d(ΔF/F0)/dt: basal cAMP, inhibitor concentration (μM); for d(ΔF/F0)/dt / Ca2+ influx induced by the PDE inhibitor alone (basal cAMP): C460W/E583M channels; for Ca2+ influx induced by the PDE inhibitor alone (basal cAMP): no AC stimulation; for effect on forskolin-induced Ca2+ influx / PDE activity: Δ61-90/C460W/E583M channels, 10 μM forskolin
Method in brief: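 GH4C1 rat pituitary cells expressing high-affinity C460W/E583M or Δ61-90/C460W/E583M CNG channels (adenovirus), with 1 μM nimodipine at time zero; cAMP read as Ca2+ influx rate d(ΔF/F0)/dt. PDE inhibitors or 100 μM IBMX added at 60 s, then 10 μM forskolin or 100 nM VIP at 240 s; mean±SE.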

[2] = tested on: PDE activity in HEK-293 cells; test: Effect and in vivo KI of PDE inhibitors on forskolin-induced Ca2+ influx through CNG channels; conditions: for effect on forskolin-induced Ca2+ influx: 1 μM forskolin, IBMX 10 or 100 μM, RO-20-1724 10 μM; for time to complete equilibration across the plasma membrane of HEK-293 cells: human, pH 7.4
Experimental: Next, experiments were conducted to pharmacologically identify the PDE type(s) that regulates cAMP levels near CNG channels. The C460W/E583M channels were used to monitor forskolin-stimulated cAMP accumulation in the presence and absence of a series of PDE inhibitors. […] In these experiments, inhibitor concentrations were used at which specific PDE types should be inhibited.
This required developing a quantitative framework to assess the relationship between cAMP synthesis, hydrolysis, and redistribution throughout the cell. Thus, the following formalism was adopted:
[formula] where C is the steady-state rate of cAMP synthesis by AC, Vmax is the maximal rate of cAMP hydrolysis, Km is the Michaelis constant for PDE, and kf is the rate constant of cAMP flux out of the microdomain. In order to estimate KI for the PDE inhibitors two assumptions were made. First, it was assumed that at low levels of AC stimulation and PDE inhibition, the concentration of local cAMP is low and diffusion of cAMP out of the microdomain is negligible. Second, the assumption was made that cAMP levels reach steady-state shortly after AC stimulation (i.e., equal rates of synthesis and hydrolysis). With these assumptions, Eq. 4 can be simplified to:
[formula] […] At low cAMP concentrations (<K1/2 for the channel), the cAMP concentration is proportional to the square root of the Ca^2+ influx rate (the Hill coefficient for channel activation is approximately 2). Thus, KI, can be estimated using a linear fit to the square root of the slopes of the fluorescence traces as a function of inhibitor concentration (See, FIG. 11).
Increases in local cAMP concentration activate CNG channels and trigger Ca^2+ entry. Ca^2+ influx was monitored in cell populations using the fluorescent indicator fura-2.
Additions were made by pipetting stock solutions into a stirred cuvette. The solutions were then assayed using an LS-50B spectrofluorimeter (Perkin Elmer). […]
Fluorescence was measured at an excitation wavelength of 380 nm and an emission wavelength of 510 nm. […] The MATLAB software package (MathWorks) was used for curve fitting and simulations.
The C460W/E583M channels were used to monitor forskolin-stimulated cAMP accumulation in the presence and absence of a series of PDE inhibitors. […] In these experiments, inhibitor concentrations were used at which specific PDE types should be inhibited.
[formula] where C is the steady-state rate of cAMP synthesis by AC, Vmax is the maximal rate of cAMP hydrolysis, Km is the Michaelis constant for PDE, and kf is the rate constant of cAMP flux out of the microdomain. In order to estimate KI for the PDE inhibitors, two assumptions were made.

[3] = C460W/E583M channels, 0.5 μM forskolin, n=4
[4] = FIG. 11, the experiments shown, C460W/E583M channels, 0.5 μM forskolin

| Structure (SMILES) | d(ΔF/F0)/dt [1] [s⁻¹] | Ki [2, 3] [nM] | effect on forskolin-induced Ca2+ influx ([2]; C460W/E583M channels) | Ki [2, 4] [nM] | time to complete equilibration across the plasma membrane of HEK-293 cells [2] [s] | Ca2+ influx induced by the PDE inhibitor alone (basal cAMP) [1] | effect on forskolin-induced Ca2+ influx / PDE activity [1] | Ki ([2]; Δ61-90/C460W/E583M channels, n=3) [nM] | slope of ΔF/F0 ([2]; 50 nM rolipram at 0 s, 0.5 μM forskolin at 180 s, C460W/E583M channels) [s⁻¹] |
| --- | --- | --- | --- | --- | --- | --- | --- | --- | --- |
| CCCCCC[C@@H]([C@@H](C)O)n1cnc2c(N)ncnc21 (racemic) [EHNA] | 0.0029 ± 0.0011 |  |  |  |  |  |  |  |  |
| CC(C)Cn1c(=O)n(C)c(=O)c2[nH]cnc21 [IBMX, 3-isobutyl-1-methylxanthine] |  | 11000 ± 2000 | significant forskolin-induced Ca^2+ influx was observed; also recorded: influenced the time course of forskolin-induced Ca^2+ influx | 10000 | < 180 | induced Ca^2+ influx through CNG channels | significantly inhibited PDE activity; also recorded: increase forskolin-induced Ca^2+ influx through CNG channels |  |  |
| CCCCOc1cc(CC2CNC(=O)N2)ccc1OC (stereo not shown) [RO-20-1724, 4-(3-butoxy-4-methoxybenzyl)-2-imidazolidinone] | 0 | 130 ± 20 | significant forskolin-induced Ca^2+ influx was observed; also recorded: influenced the time course of forskolin-induced Ca^2+ influx | 140 | < 180 | No RO-20-1724- or rolipram-sensitive PDE was observed | also inhibited PDE activity; also recorded: increase forskolin-induced Ca^2+ influx through CNG channels | 150 ± 20 |  |
| COc1ccc(C2CNC(=O)C2)cc1OC1CCCC1 (stereo not shown) [Rolipram] | 0 | 70 ± 20 | significantly increased the forskolin-induced Ca^2+ influx | 90 |  | No RO-20-1724- or rolipram-sensitive PDE was observed | also inhibited PDE activity; also recorded: increase forskolin-induced Ca^2+ influx through CNG channels |  | 0.00062 |
